# Patent publication US12410160B2 (Gilead Sciences, Inc., priority 2021, dated 2025)
# How the values were obtained:
# human KHK-C = human KHK-C (Homo sapiens (Human), UniProt P50053); assay: KHK Biochemical Assay (IC50), ADP-Glo, KHK-C; conditions: ADP-Glo; average of at least two separate assays
# How it was run: (§1)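 His-tagged enzyme expressed in BL21 (DE3), Ni-NTA purified. Compounds, serially diluted 1:3 in DMSO, pre-incubated 30 min with enzyme in 50 mM Hepes pH 7.4, 140 mM KCl, 5 mM MgCl2, 0.01% Triton-X, then ATP and fructose added; 4 h at room temperature. ADP formation read by ADP-Glo luminescence.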
# human KHK-A = human KHK-A (Homo sapiens (Human), UniProt P50053); assay: KHK Biochemical Assay (IC50), ADP-Glo, KHK-A; conditions: ADP-Glo; average of at least two separate assays
# How it was run: as §1
# Chain of human KHK-A (P50053 other isoform, or with tags, fused parts or gaps): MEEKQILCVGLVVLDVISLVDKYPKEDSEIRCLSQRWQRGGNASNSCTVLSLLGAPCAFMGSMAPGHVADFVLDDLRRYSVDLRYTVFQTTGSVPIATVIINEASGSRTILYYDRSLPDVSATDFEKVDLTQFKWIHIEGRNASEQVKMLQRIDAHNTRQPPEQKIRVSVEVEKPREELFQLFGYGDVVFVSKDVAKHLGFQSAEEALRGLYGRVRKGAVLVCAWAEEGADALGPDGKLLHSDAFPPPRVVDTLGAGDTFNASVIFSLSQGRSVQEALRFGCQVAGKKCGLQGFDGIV
# Chain of human KHK-C (P50053 whole entry): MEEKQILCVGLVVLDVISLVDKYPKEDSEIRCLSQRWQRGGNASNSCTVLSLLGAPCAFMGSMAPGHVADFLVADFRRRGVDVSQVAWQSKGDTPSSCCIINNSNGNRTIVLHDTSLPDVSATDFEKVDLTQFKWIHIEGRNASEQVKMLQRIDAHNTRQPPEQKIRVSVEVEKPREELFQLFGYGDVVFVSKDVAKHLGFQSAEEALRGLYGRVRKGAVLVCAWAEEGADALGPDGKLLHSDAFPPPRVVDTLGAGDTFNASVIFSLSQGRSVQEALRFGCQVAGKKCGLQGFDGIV
Compound,IC50 (human KHK-C) [µM],IC50 (human KHK-A) [µM]
"C[C@H]1CCN1c1nc2c(c(-c3ccc(N4CCOCC4)nc3)n1)CCC2 [Example 291, (S)-4-(5-(2-(2-methylazetidin-1-yl)-6,7-dihydro-5H-cyclopenta[d]pyrimidin-4-yl)pyridin-2-yl)morpholine]",0.098,0.141
"C[C@H]1CCN1c1nc2c(c(-c3ccc(C4(NC(=O)OC(C)(C)C)CC4)cc3)n1)CCC2 [Example 294, (S)-tert-butyl (1-(4-(2-(2-methylazetidin-1-yl)-6,7-dihydro-5H-cyclopenta[d]pyrimidin-4-yl)phenyl)cyclopropyl)carbamate]",3.41,3.89
"C[C@H]1[C@H](O)CN1c1nc2c(c(-c3ccc(C4(N)CC4)cc3)n1)CCC2 [Example 301, (2S,3R)-1-(4-(4-(1-aminocyclopropyl)phenyl)-6,7-dihydro-5H-cyclopenta[d]pyrimidin-2-yl)-2-methylazetidin-3-ol]",0.0037,0.0099
"C[C@H]1CCN1c1nc2c(c(-c3ccc(C4(N5CCN(C)CC5)CC4)cc3)n1)CCC2 [Example 302, (S)-2-(2-methylazetidin-1-yl)-4-(4-(1-(4-methylpiperazin-1-yl)cyclopropyl)phenyl)-6,7-dihydro-5H-cyclopenta[d]pyrimidine]",0.849,0.636
"C[C@H]1CCN1c1nc2c(c(-c3ccc(C4(N5CCOCC5)CC4)cc3)n1)CCC2 [Example 304, (S)-4-(1-(4-(2-(2-methylazetidin-1-yl)-6,7-dihydro-5H-cyclopenta[d]pyrimidin-4-yl)phenyl)cyclopropyl)morpholine]",0.786,0.983
"Cc1ncc(-c2nc(N3CC[C@@H]3C)nc3c2CCC3)o1 [Example 325, 2-methyl-5-[2-[(2S)-2-methylazetidin-1-yl]-6,7-dihydro-5H-cyclopenta[d]pyrimidin-4-yl]oxazole]",0.452,0.441
"Cc1cc(-c2nc(N3CC[C@@H]3C)nc3c2CCC3)on1 [Example 326, 3-methyl-5-[2-[(2S)-2-methylazetidin-1-yl]-6,7-dihydro-5H-cyclopenta[d]pyrimidin-4-yl]isoxazole]",0.228,0.231
"Cc1cc(-c2nc(N3CC[C@@H]3C)nc3c2CCC3)sn1 [Example 327, 3-methyl-5-[2-[(2S)-2-methylazetidin-1-yl]-6,7-dihydro-5H-cyclopenta[d]pyrimidin-4-yl]isothiazole]",0.0382,0.0968
"C[C@H]1CCN1c1nc2c(c(-c3ccccc3)n1)CC1(CC1)C2 [Example 335, 2-[(2S)-2-methylazetidin-1-yl]-4-phenyl-spiro[5,7-dihydrocyclopenta[d]pyrimidine-6,1′-cyclopropane]]",> 50,> 50
"CC1CCc2c(-c3ccccc3)nc(N3CC[C@@H]3C)nc21 (stereo partly drawn) [Example 336, 7-methyl-2-[(2S)-2-methylazetidin-1-yl]-4-phenyl-6,7-dihydro-5H-cyclopenta[d]pyrimidine]",20.1,13.2
"CC1Cc2nc(N3CC[C@@H]3C)nc(-c3ccccc3)c2C1 (stereo partly drawn) [Example 337, 6-methyl-2-[(2S)-2-methylazetidin-1-yl]-4-phenyl-6,7-dihydro-5H-cyclopenta[d]pyrimidine]",5.1,2.95
"C[C@H]1CCN1c1nc(-c2ccccc2)c2c(n1)C1(CC2)CC1 [Example 338, 2-[(2S)-2-methylazetidin-1-yl]-4-phenyl-spiro[5,6-dihydrocyclopenta[d]pyrimidine-7,1′-cyclopropane]]",> 50,> 50
"CC1CCc2nc(N3CC[C@@H]3C)nc(-c3ccccc3)c21 (stereo partly drawn) [Example 339, 5-methyl-2-[(2S)-2-methylazetidin-1-yl]-4-phenyl-6,7-dihydro-5H-cyclopenta[d]pyrimidine]",2.23,1.9
"Cc1cnc(-c2nc(N3CC[C@@H]3C)nc3c2CCC3)s1 [Example 342, 5-methyl-2-[2-[(2S)-2-methylazetidin-1-yl]-6,7-dihydro-5H-cyclopenta[d]pyrimidin-4-yl]thiazole]",0.107,0.107
"C[C@H]1CCN1c1nc2c(c(-c3ccnnc3)n1)CCC2 [Example 343, 2-[(2S)-2-methylazetidin-1-yl]-4-pyridazin-4-yl-6,7-dihydro-5H-cyclopenta[d]pyrimidine]",0.408,0.357
"C[C@H]1CCN1c1nc2c(c(-c3cnccn3)n1)CCC2 [Example 344, 2-[(2S)-2-methylazetidin-1-yl]-4-pyrazin-2-yl-6,7-dihydro-5H-cyclopenta[d]pyrimidine]",0.224,0.175
"C[C@H]1CCN1c1nc2c(c(-c3ccc(S(C)(=O)=O)cc3)n1)CCC2 [Example 354, 2-[(2S)-2-methylazetidin-1-yl]-4-(4-methylsulfonylphenyl)-6,7-dihydro-5H-cyclopenta[d]pyrimidine]",0.138,0.177

# Second part, the molecule after the results:
IC50 (human KHK-C) [µM],IC50 (human KHK-A) [µM],Compound
0.0891,0.0657,"CNC(=O)c1ccc(-c2nc(N3CC[C@@H]3C)nc3c2CCC3)cc1 [Example 292, (S)—N-methyl-4-(2-(2-methylazetidin-1-yl)-6,7-dihydro-5H-cyclopenta[d]pyrimidin-4-yl)benzamide]"
0.2,0.153,"C[C@H]1CCN1c1nc2c(c(-c3ccc(C(=O)N(C)C)cc3)n1)CCC2 [Example 293, (S)—N,N-dimethyl-4-(2-(2-methylazetidin-1-yl)-6,7-dihydro-5H-cyclopenta[d]pyrimidin-4-yl)benzamide]"
3,2.09,"C[C@H]1CCN1c1nc2c(c(-c3ccc(C(=O)Nc4ccccc4)cc3)n1)CCC2 [Example 296, (S)-4-(2-(2-methylazetidin-1-yl)-6,7-dihydro-5H-cyclopenta[d]pyrimidin-4-yl)-N-phenylbenzamide]"
2.84,0.847,"C[C@H]1CCN1c1nc2c(c(-c3cccc(C(=O)Nc4ccccc4)c3)n1)CCC2 [Example 297, (S)-3-(2-(2-methylazetidin-1-yl)-6,7-dihydro-5H-cyclopenta[d]pyrimidin-4-yl)-N-phenylbenzamide]"
0.247,0.374,"C[C@H]1CCN1c1nc2c(c(-c3cc(C(N)=O)cc([N+](=O)[O-])c3)n1)CCC2 [Example 298, (S)-3-(2-(2-methylazetidin-1-yl)-6,7-dihydro-5H-cyclopenta[d]pyrimidin-4-yl)-5-nitrobenzamide]"
0.0456,0.0473,"C[C@H]1CCN1c1nc2c(c(-c3cc(N)cc(C(N)=O)c3)n1)CCC2 [Example 299, (S)-3-amino-5-(2-(2-methylazetidin-1-yl)-6,7-dihydro-5H-cyclopenta[d]pyrimidin-4-yl)benzamide]"
0.0336,0.0428,"C[C@H]1CCN1c1nc2c(c(-c3cc(NS(C)(=O)=O)cc(C(N)=O)c3)n1)CCC2 [Example 300, (S)-3-(2-(2-methylazetidin-1-yl)-6,7-dihydro-5H-cyclopenta[d]pyrimidin-4-yl)-5-(methylsulfonamido)benzamide]"
0.502,0.609,"C[C@H]1CCN1c1nc2c(c(-c3cccc(CNC(=O)OC(C)(C)C)c3)n1)CCC2 [Example 328, tert-butyl N-[[3-[2-[(2S)-2-methylazetidin-1-yl]-6,7-dihydro-5H-cyclopenta[d]pyrimidin-4-yl]phenyl]methyl]carbamate]"
